Measured values published in patent US12383510B2 (Starton Therapeutics, Inc., priority 2020, dated 2025).
Entries after “also recorded” stand apart in the source; their conditions may differ. Marks after values point to notes of the source that are not given here.

What was measured:
[1] = tested on: healthy female volunteers; assay: Phase 1 study: antiemetic effect of oral olanzapine doses following apomorphine challenge on day 8; type: in vivo, human; settings: for Nausea Score 1-120 min.: apomorphine 0.05 mg/kg, scale 1=no nausea, 10=severe nausea
Procedure: Twenty-four healthy female volunteers were enrolled. Four active-treatment groups and a cohort of placebo-treated subjects were evaluated.
Subjects were administered study drug once daily for 8 days. During this period, subjects maintained a study diary of their side effects. The subject diary was used to collect on a daily basis any adverse events including an assessment of the presence and/or intensity of sedation on a numeric scale where 1=no sedation and 10=excessive sedation.
On the 8th day, subjects were administered apomorphine at a dose of 0.05 mg/kg and assessed over 6 hours. During this period, subjects were asked to record episodes of nausea on a numeric scale every 15 minutes for the duration of assessment. The intensity of nausea was captured using a 1-10 rating scale where 1=no nausea and 10=severe nausea. Emesis intensity was also captured where 1=no emesis and 10=severe emesis. Episodes of retching or emesis were collected and measured for the absolute number of retches or vomits during the collection period and documented for the time of the specific event following the administration of the apomorphine.

[2] = clinical; settings: human, plasma, oral
[3] = oral olanzapine 2 mg a day, apomorphine challenge
[4] = oral olanzapine 4 mg a day, apomorphine challenge
[5] = oral olanzapine 6 mg a day, apomorphine challenge
[6] = oral olanzapine 8 mg a day, apomorphine challenge

Cc1cc2c(s1)Nc1ccccc1N=C2N1CCN(C)CC1 [olanzapine, 2-methyl-10-(4-methyl-1-piperazinyl)-4H-thieno-[2,3-b][1,5]benzo-diazepine]
Nausea severity scores during 0-120 min following apomorphine challenge, comparison with placebo ([1]; 2 mg olanzapine steady state dose): not significantly different than placebo | Nausea severity scores during 0-120 min following apomorphine challenge, comparison with placebo ([1]; 4 mg olanzapine steady state dose, p<0.05): significantly different than placebo | Maximum intensity of nausea, comparison between doses ([1]; 4 mg, 6 mg and 8 mg dose, apomorphine challenge): no different | Nausea severity scores during 0-120 min following apomorphine challenge, comparison with placebo ([1]; 6 mg olanzapine steady state dose, p<0.05): significantly different than placebo | Nausea severity scores during 0-120 min following apomorphine challenge, comparison with placebo ([1]; 8 mg olanzapine steady state dose): not different from the placebo control; also recorded: not significantly different than placebo | Nausea Score 1-120 min. ([1]; oral olanzapine 2 mg a day for 8 days): 6** | Nausea Score 1-120 min. (severity in words) [1, 3]: Moderate | Retching (incidence) [1, 3]: 40% | Vomiting (incidence) [1, 3]: 40% | Nausea Score 1-120 min. ([1]; oral olanzapine 4 mg a day for 8 days): 3.4 # | Nausea Score 1-120 min. (severity in words) [1, 4]: Mild | Retching (incidence) [1, 4]: 0% | Vomiting (incidence) [1, 4]: 20% | Nausea Score 1-120 min. ([1]; oral olanzapine 6 mg a day for 8 days): 3.7 # | Nausea Score 1-120 min. (severity in words) [1, 5]: Mild | Retching (incidence) [1, 5]: 0% | Vomiting (incidence) [1, 5]: 0% | Nausea Score 1-120 min. ([1]; oral olanzapine 8 mg a day for 8 days): 5** | Nausea Score 1-120 min. (severity in words) [1, 6]: Mild | Retching (incidence) [1, 6]: 20% | Vomiting (incidence) [1, 6]: 20% | concentration at 1 day ([2]; 4 mg a day): 5 ng/mL | concentration at 1 day ([2]; 6 mg a day): 8 ng/mL
